Bases are written 5' to 3'; sugars and linkages follow in the same order, as letters with counts (s phosphorothioate, o phosphodiester; PS: all linkages phosphorothioate). C may stand for cytosine or 5-methylcytosine; the collection does not tell. l = locked nucleic acid (LNA); d = 2'-deoxy (DNA)
molecular target: HIF1A; assay: HeLa, 100 nM transfected, 24 h, mean of 3; settings: ASO

Row | Sequence | caspase activation (% of PBS control)
1 | TGGCAAGCATCCTGTA (sugars l1 d3 l1 d10 l1, PS) | 146
2 | TGGCAAGCATCCTGTA (sugars ldlldddddddldldl, PS) | 400
3 | TGGCAAGCATCCTGTA (sugars l4 d7 l5, PS) | 414
4 | TGGCAAGCATCCTGTA (sugars l1 d10 l1 d1 l3, PS) | 348
5 | GTTACTGCCTTCTTAC (sugars l4 d7 l1 d1 l3, PS) | 253
6 | GCAAGCATCCTGT (sugars l1 d2 l1 d6 l3, PS) | 154
7 | GCAAGCATCCTGT (sugars l4 d6 l3, PS) | 340
8 | TGGCAAGCATCCTGTA (sugars llldlddddddldldl, PS) | 350
9 | TACTGCCTTCTTA (sugars l1 d1 l2 d8 l1, PS) | 270
10 | GGCAAGCATCCTG (sugars lddlddddddldl, PS) | 198
11 | GTTACTGCCTTCTTAC (sugars l2 d1 l1 d9 l3, PS) | 130
12 | GTTACTGCCTTCTTAC (sugars l2 d1 l1 d10 l2, PS) | 97.3
13 | GTTACTGCCTTCTTAC (sugars llddlddddddddldl, PS) | 222
14 | GTTACTGCCTTCTTAC (sugars l3 d1 l1 d8 l3, PS) | 264
15 | GTTACTGCCTTCTTAC (sugars ldllldddddddlldl, PS) | 470
16 | TGGCAAGCATCCTGTA (sugars l5 d6 l5, PS) | 445
17 | TTACTGCCTTCTT (sugars l2 d10 l1, PS) | 158
18 | TGGCAAGCATCCTGTA (sugars l1 d1 l3 d8 l3, PS) | 448
19 | GTTACTGCCTTCT (sugars l2 d8 l3, PS) | 168
20 | GTTACTGCCTTCTTAC (sugars l4 d7 l2 d1 l2, PS) | 291
21 | TGGCAAGCATCCT (sugars l1 d1 l2 d7 l2, PS) | 353
22 | TGGCAAGCATCCTGTA (sugars l3 d8 l2 d2 l1, PS) | 221
23 | GTTACTGCCTTCTTAC (sugars l5 d7 l4, PS) | 574
24 | GTTACTGCCTTCTTAC (sugars llldldddddddlldl, PS) | 341
25 | GGCAAGCATCCTG (sugars l3 d8 l2, PS) | 642
26 | GTTACTGCCTTCT (sugars l3 d9 l1, PS) | 138

Row | Sequence | caspase activation (% of PBS control)
27 | TACTGCCTTCTTA (sugars l2 d1 l1 d8 l1, PS) | 222
28 | CAAGCATCCTGTA (sugars l1 d1 l2 d7 l2, PS) | 151
29 | GTTACTGCCTTCTTAC (sugars l2 d2 l1 d6 l5, PS) | 365
30 | TGGCAAGCATCCTGTA (sugars lddlldddddddlldl, PS) | 409
31 | GTTACTGCCTTCTTAC (sugars lddddddddddldldl, PS) | 115
32 | GTTACTGCCTTCT (sugars l2 d10 l1, PS) | 109
33 | TGGCAAGCATCCT (sugars l1 d2 l1 d7 l2, PS) | 157
34 | TGGCAAGCATCCTGTA (sugars l5 d9 l2, PS) | 402
35 | TACTGCCTTCTTA (sugars l4 d6 l3, PS) | 404
36 | TGGCAAGCATCCTGTA (sugars lddldddddddldddl, PS) | 173
37 | GTTACTGCCTTCTTAC (sugars l2 d2 l1 d10 l1, PS) | 158
38 | CAAGCATCCTGTA (sugars l3 d9 l1, PS) | 237
39 | TGGCAAGCATCCTGTA (sugars lddldddddddddldl, PS) | 200
40 | GTTACTGCCTTCTTAC (sugars l1 d1 l3 d8 l3, PS) | 463
41 | TGGCAAGCATCCTGTA (sugars ldddlddddddllddl, PS) | 246
42 | TTACTGCCTTCTT (sugars l4 d8 l1, PS) | 202
43 | GTTACTGCCTTCTTAC (sugars l2 d10 l1 d2 l1, PS) | 123
44 | GTTACTGCCTTCTTAC (sugars l1 d1 l2 d10 l2, PS) | 130
45 | GTTACTGCCTTCTTAC (sugars lldldddddddllddl, PS) | 196
46 | GTTACTGCCTTCTTAC (sugars lddllddddddldlll, PS) | 237
47 | TGGCAAGCATCCTGTA (sugars l4 d11 l1, PS) | 422
48 | GTTACTGCCTTCTTAC (sugars ldldldddddddldll, PS) | 214
49 | GTTACTGCCTTCTTAC (sugars ldddlddddddldldl, PS) | 161
50 | GTTACTGCCTTCTTAC (sugars l1 d2 l1 d8 l4, PS) | 175
51 | TGGCAAGCATCCTGTA (sugars llldlddddddlddll, PS) | 348
52 | TGGCAAGCATCCTGTA (sugars lldllddddddldlll, PS) | 438

Row | Sequence | caspase activation (% of PBS control)
53 | TTACTGCCTTCTT (sugars l2 d9 l2, PS) | 148
54 | GTTACTGCCTTCTTAC (sugars ldlddddddddlldll, PS) | 135
55 | GTTACTGCCTTCTTAC (sugars l4 d7 l5, PS) | 461
56 | TGGCAAGCATCCTGTA (sugars lldllddddddlddll, PS) | 475
57 | TGGCAAGCATCCTGTA (sugars lldldddddddlddll, PS) | 460
58 | TGGCAAGCATCCTGTA (sugars l1 d2 l1 d7 l5, PS) | 416
59 | GTTACTGCCTTCT (sugars l2 d1 l1 d8 l1, PS) | 133
60 | TGGCAAGCATCCTGTA (sugars l2 d10 l1 d1 l2, PS) | 376
61 | TGGCAAGCATCCTGTA (sugars lllllddddddldldl, PS) | 373
62 | TTACTGCCTTCTT (sugars l1 d1 l1 d9 l1, PS) | 117
63 | TGGCAAGCATCCTGTA (sugars l5 d7 l4, PS) | 358
64 | GTTACTGCCTTCTTAC (sugars l5 d10 l1, PS) | 284
65 | GTTACTGCCTTCTTAC (sugars l3 d1 l1 d7 l4, PS) | 324
66 | GTTACTGCCTTCTTAC (sugars l4 d7 l1 d3 l1, PS) | 250
67 | TGGCAAGCATCCTGTA (sugars l5 d6 l3 d1 l1, PS) | 366
68 | GTTACTGCCTTCTTAC (sugars lddlldddddddlddl, PS) | 229
69 | GTTACTGCCTTCTTAC (sugars l1 d1 l3 d6 l5, PS) | 616
70 | TGGCAAGCATCCT (sugars l1 d1 l1 d9 l1, PS) | 160
71 | GTTACTGCCTTCT (sugars l4 d7 l2, PS) | 196
72 | GTTACTGCCTTCTTAC (sugars l5 d6 l2 d1 l2, PS) | 488
73 | TTACTGCCTTCTT (sugars l2 d1 l1 d6 l3, PS) | 325
74 | TTACTGCCTTCTT (sugars l3 d8 l2, PS) | 226
75 | TGGCAAGCATCCTGTA (sugars ldlddddddddllddl, PS) | 197
76 | TGGCAAGCATCCTGTA (sugars lldldddddddllddl, PS) | 309
77 | ACTGCCTTCTTAC (sugars l1 d9 l1 d1 l1, PS) | 140
78 | GTTACTGCCTTCTTAC (sugars l1 d2 l2 d10 l1, PS) | 185

Row | Sequence | caspase activation (% of PBS control)
79 | TGGCAAGCATCCTGTA (sugars llldlddddddlldll, PS) | 458
80 | GTTACTGCCTTCTTAC (sugars l2 d1 l2 d8 l3, PS) | 318
81 | TACTGCCTTCTTA (sugars l1 d1 l2 d7 l2, PS) | 448
82 | TGGCAAGCATCCTGTA (sugars ldlddddddddddldl, PS) | 147
83 | GTTACTGCCTTCTTAC (sugars lddlddddddddlldl, PS) | 177
84 | GTTACTGCCTTCTTAC (sugars l2 d9 l1 d1 l3, PS) | 157
85 | TACTGCCTTCTTA (sugars l1 d1 l1 d8 l2, PS) | 277
86 | GTTACTGCCTTCTTAC (sugars l1 d10 l1 d2 l2, PS) | 102
87 | GTTACTGCCTTCTTAC (sugars lldllddddddlldll, PS) | 289
88 | TGGCAAGCATCCTGTA (sugars l1 d11 l4, PS) | 346
89 | TGGCAAGCATCCTGTA (sugars ldddlddddddllldl, PS) | 224
90 | TGGCAAGCATCCTGTA (sugars l3 d1 l1 d6 l5, PS) | 536
91 | TTACTGCCTTCTT (sugars l4 d6 l3, PS) | 396
92 | GTTACTGCCTTCTTAC (sugars llldlddddddddldl, PS) | 271
93 | TGGCAAGCATCCTGTA (sugars l1 d1 l2 d7 l5, PS) | 415
94 | ACTGCCTTCTTAC (sugars l3 d7 l3, PS) | 403
95 | GTTACTGCCTTCTTAC (sugars lldlldddddddlddl, PS) | 278
96 | GTTACTGCCTTCTTAC (sugars ldlddddddddllldl, PS) | 271
97 | GCAAGCATCCTGT (sugars l3 d7 l1 d1 l1, PS) | 426
98 | TGGCAAGCATCCTGTA (sugars llldldddddddldll, PS) | 367
99 | GTTACTGCCTTCTTAC (sugars llddlddddddlddll, PS) | 193
100 | TGGCAAGCATCCTGTA (sugars lddlddddddddlldl, PS) | 392
101 | ACTGCCTTCTTAC (sugars l4 d7 l2, PS) | 406

— the OligoGym collection
